{"source": "patent US20070128217A1", "about": "(priority 2003, published 2007)", "key": {"[1]": {"test_system": "antibodies in sera from SARS patients (sera 1a, 1b, 2, 6, 37, 62, London, SARS-yellow, SARS-green)", "format": "binding, human", "parameters": "Binding of serum 6 to linear peptides of protein X1 of SARS-CoV Urbani / Binding of serum 37 to linear peptides of protein X1 of SARS-CoV Urbani / Binding of serum 6 to looped/cyclic peptide (PEPSCAN-ELISA) / Binding of serum 37 to looped/cyclic peptide (PEPSCAN-ELISA) / Binding of serum 37 to looped/cyclic peptides of protein X1 of SARS-CoV Urbani / Binding of serum 6 to linear peptides of protein X2 / Binding of serum 37 to linear peptides of protein X2 / Binding of serum 37 to looped/cyclic peptides of protein X2 of SARS-CoV Urbani / Binding of serum 6 to linear peptides of protein M of SARS-CoV Urbani / Binding of serum 37 to linear peptides of protein M of SARS-CoV Urbani / Binding of serum 6 to looped/cyclic peptides of protein M of SARS-CoV Urbani / Binding of serum 37 to looped/cyclic peptides of protein M of SARS-CoV Urbani / Binding of serum 6 to linear peptides of protein X3 of SARS-CoV Urbani / Binding of serum 37 to linear peptides of protein X3 of SARS-CoV Urbani / Binding of serum 37 to looped/cyclic peptides of protein X3 of SARS-CoV Urbani / Binding of serum 6 to linear peptides of protein X4 of SARS-CoV Urbani / Binding of serum 37 to linear peptides of protein X4 of SARS-CoV Urbani / Binding of serum 37 to looped/cyclic peptides of protein X4 of SARS-CoV Urbani / Binding of serum 6 to linear peptides of protein X5 of SARS-CoV Urbani / Binding of serum 37 to linear peptides of protein X5 of SARS-CoV Urbani / Binding of serum 37 to looped/cyclic peptides of protein X5 of SARS-CoV Urbani / Binding of serum 6 to linear peptides of protein N of SARS-CoV Urbani / Binding of serum 37 to linear peptides of protein N of SARS-CoV Urbani / Binding of serum 6 to linear peptide (PEPSCAN-ELISA) / Binding of serum 1a to looped/cyclic peptides of protein N of SARS-CoV Urbani / Binding of serum 1b to looped/cyclic peptides of protein N of SARS-CoV Urbani / Binding of serum 2 to looped/cyclic peptides of protein N of SARS-CoV Urbani / Binding of serum 6 to looped/cyclic peptides of protein N of SARS-CoV Urbani / Binding of serum 37 to looped/cyclic peptides of protein N of SARS-CoV Urbani / Binding of serum 62 to looped/cyclic peptides of protein N of SARS-CoV Urbani / Binding of serum London to looped/cyclic peptides of protein N of SARS-CoV Urbani / Binding of serum SARS-green to looped/cyclic peptides of protein N of SARS-CoV Urbani: unit not given here"}, "[2]": {"test_system": "control sera (pooled serum of ten healthy LUMC hospital workers; commercial negative donor pooled serum from the Dutch bloodbank)", "format": "binding, human", "parameters": "Binding of Control serum LUMC to linear peptides / Binding of Control serum Blood-bank to linear peptides / Binding of Control serum LUMC to looped peptides / Binding of Control Serum Blood-Bank to Looped peptides / Binding of Control serum LUMC to linear peptides of the protein M of SARS-CoV Urbani / Binding of Control serum Blood-bank to linear peptides of the protein M of SARS-CoV Urbani / Binding of Control serum LUMC to looped peptides of the protein M of SARS-CoV Urbani / Binding of Control Serum Blood-Bank to Looped peptides of the protein M of SARS-CoV Urbani: unit not given here"}, "[3]": {"test_system": "rabbit serum obtained by immunizing a rabbit with the SARS-CoV strain Frankfurt 1", "format": "binding", "parameters": "Binding of a rabbit serum to linear peptides / Binding of a rabbit serum to looped peptides / Rabbit serum linear peptides / Rabbit serum looped peptides / Binding of a rabbit serum to linear peptides of protein N of SARS-CoV Urbani (Rabbit serum linear peptides) / Binding of a rabbit serum to looped/cyclic peptides of protein N of SARS-CoV Urbani (Rabbit serum looped peptides): unit not given here"}, "[4]": {"test_system": "recombinant human anti-SARS-CoV antibody 03-018", "format": "binding", "parameters": "Binding of antibody 03-018 to linear peptides of the N protein of SARS-CoV Urbani / Binding of antibody 03-018 to looped/cyclic peptides of the N protein of SARS-CoV Urbani: unit not given here"}}}
{"sequence": "EELRFPRGQGVPINT", "values": [{"measurement": "Binding of serum 1a to linear peptides of protein N of SARS-CoV Urbani", "setting": "[1]", "result": 0.2}, {"measurement": "Binding of serum 1a to looped/cyclic peptides of protein N of SARS-CoV Urbani", "setting": "[1]", "result": 0.6}, {"measurement": "Binding of serum 1b to linear peptides of protein N of SARS-CoV Urbani", "setting": "[1]", "result": 0.1}, {"measurement": "Binding of serum 1b to looped/cyclic peptides of protein N of SARS-CoV Urbani", "setting": "[1]", "result": 0.4}, {"measurement": "Binding of serum 2 to linear peptides of protein N of SARS-CoV Urbani", "setting": "[1]", "result": 0.3}, {"measurement": "Binding of serum 2 to looped/cyclic peptides of protein N of SARS-CoV Urbani", "setting": "[1]", "result": 0.8}, {"measurement": "Binding of serum 6 to linear peptides of protein N of SARS-CoV Urbani", "setting": "[1]", "result": 0.2}, {"measurement": "Binding of serum 6 to looped/cyclic peptides of protein N of SARS-CoV Urbani", "setting": "[1]", "result": 0.5}, {"measurement": "Binding of serum 37 to linear peptides of protein N of SARS-CoV Urbani", "setting": "[1]", "result": 0.7}, {"measurement": "Binding of serum 37 to looped/cyclic peptides of protein N of SARS-CoV Urbani", "setting": "[1]", "result": 1.0}, {"measurement": "Binding of serum 62 to linear peptides of protein N of SARS-CoV Urbani", "setting": "[1]", "result": 0.7}, {"measurement": "Binding of serum 62 to looped/cyclic peptides of protein N of SARS-CoV Urbani", "setting": "[1]", "result": 1.2}, {"measurement": "Binding of serum London to linear peptides of protein N of SARS-CoV Urbani", "setting": "[1]", "result": 0.5}, {"measurement": "Binding of serum London to looped/cyclic peptides of protein N of SARS-CoV Urbani", "setting": "[1]", "result": 0.7}, {"measurement": "Binding of serum SARS-green to linear peptides of protein N of SARS-CoV Urbani", "setting": "[1]", "result": 0.4}, {"measurement": "Binding of serum SARS-green to looped/cyclic peptides of protein N of SARS-CoV Urbani", "setting": "[1]", "result": 0.9}, {"measurement": "Binding of serum SARS-yellow to linear peptides of protein N of SARS-CoV Urbani", "setting": "[1]", "result": 0.6}, {"measurement": "Binding of serum SARS-yellow to looped/cyclic peptides of protein N of SARS-CoV Urbani", "setting": "[1]", "result": 0.8}, {"measurement": "Binding of Control Serum Blood-Bank to Looped peptides", "setting": "[2]", "result": 1.3}, {"measurement": "Binding of Control serum Blood-bank to linear peptides", "setting": "[2]", "result": 0.8}, {"measurement": "Binding of Control serum LUMC to linear peptides", "setting": "[2]", "result": 0.8}, {"measurement": "Binding of Control serum LUMC to looped peptides", "setting": "[2]", "result": 1.1}, {"measurement": "Binding of a rabbit serum to linear peptides of protein N of SARS-CoV Urbani (Rabbit serum linear peptides)", "setting": "[3]", "result": 0.1}, {"measurement": "Binding of a rabbit serum to looped/cyclic peptides of protein N of SARS-CoV Urbani (Rabbit serum looped peptides)", "setting": "[3]", "result": 0.6}, {"measurement": "Binding of antibody 03-018 to linear peptides of the N protein of SARS-CoV Urbani", "setting": "[4]", "result": 0.1}, {"measurement": "Binding of antibody 03-018 to looped/cyclic peptides of the N protein of SARS-CoV Urbani", "setting": "[4]", "result": 0.3}]}
{"sequence": "ELRFPRGQGVPINTN", "values": [{"measurement": "Binding of serum 1a to linear peptides of protein N of SARS-CoV Urbani", "setting": "[1]", "result": 0.2}, {"measurement": "Binding of serum 1a to looped/cyclic peptides of protein N of SARS-CoV Urbani", "setting": "[1]", "result": 0.4}, {"measurement": "Binding of serum 1b to linear peptides of protein N of SARS-CoV Urbani", "setting": "[1]", "result": 0.1}, {"measurement": "Binding of serum 1b to looped/cyclic peptides of protein N of SARS-CoV Urbani", "setting": "[1]", "result": 0.3}, {"measurement": "Binding of serum 2 to linear peptides of protein N of SARS-CoV Urbani", "setting": "[1]", "result": 0.3}, {"measurement": "Binding of serum 2 to looped/cyclic peptides of protein N of SARS-CoV Urbani", "setting": "[1]", "result": 0.5}, {"measurement": "Binding of serum 6 to linear peptides of protein N of SARS-CoV Urbani", "setting": "[1]", "result": 0.1}, {"measurement": "Binding of serum 6 to looped/cyclic peptides of protein N of SARS-CoV Urbani", "setting": "[1]", "result": 0.3}, {"measurement": "Binding of serum 37 to linear peptides of protein N of SARS-CoV Urbani", "setting": "[1]", "result": 0.7}, {"measurement": "Binding of serum 37 to looped/cyclic peptides of protein N of SARS-CoV Urbani", "setting": "[1]", "result": 0.7}, {"measurement": "Binding of serum 62 to linear peptides of protein N of SARS-CoV Urbani", "setting": "[1]", "result": 0.7}, {"measurement": "Binding of serum 62 to looped/cyclic peptides of protein N of SARS-CoV Urbani", "setting": "[1]", "result": 0.6}, {"measurement": "Binding of serum London to linear peptides of protein N of SARS-CoV Urbani", "setting": "[1]", "result": 0.5}, {"measurement": "Binding of serum London to looped/cyclic peptides of protein N of SARS-CoV Urbani", "setting": "[1]", "result": 0.5}, {"measurement": "Binding of serum SARS-green to linear peptides of protein N of SARS-CoV Urbani", "setting": "[1]", "result": 0.4}, {"measurement": "Binding of serum SARS-green to looped/cyclic peptides of protein N of SARS-CoV Urbani", "setting": "[1]", "result": 0.7}, {"measurement": "Binding of serum SARS-yellow to linear peptides of protein N of SARS-CoV Urbani", "setting": "[1]", "result": 0.6}, {"measurement": "Binding of serum SARS-yellow to looped/cyclic peptides of protein N of SARS-CoV Urbani", "setting": "[1]", "result": 0.4}, {"measurement": "Binding of Control Serum Blood-Bank to Looped peptides", "setting": "[2]", "result": 0.7}, {"measurement": "Binding of Control serum Blood-bank to linear peptides", "setting": "[2]", "result": 0.6}, {"measurement": "Binding of Control serum LUMC to linear peptides", "setting": "[2]", "result": 0.8}, {"measurement": "Binding of Control serum LUMC to looped peptides", "setting": "[2]", "result": 0.7}, {"measurement": "Binding of a rabbit serum to linear peptides of protein N of SARS-CoV Urbani (Rabbit serum linear peptides)", "setting": "[3]", "result": 0.1}, {"measurement": "Binding of a rabbit serum to looped/cyclic peptides of protein N of SARS-CoV Urbani (Rabbit serum looped peptides)", "setting": "[3]", "result": 0.4}, {"measurement": "Binding of antibody 03-018 to linear peptides of the N protein of SARS-CoV Urbani", "setting": "[4]", "result": 0.1}, {"measurement": "Binding of antibody 03-018 to looped/cyclic peptides of the N protein of SARS-CoV Urbani", "setting": "[4]", "result": 0.2}]}
